pEC50, pIC50: −log10 of the molar value.
What was measured:
[1] = molecular target: T1, F1F0-ATPase (Bos taurus, UniProt P13621); test: Inhibition of F1F0-ATPase activity in synthesizing ATP; assay type: biochemical; conditions: inhibition of ATP synthesis; read-out: ATP Syn IC50
T1 construct: from tissue
Experimental: (§1) The compounds listed in Table 4 were tested for activity against F1F0-ATPase by measuring the ability of the compounds to inhibit ATP synthesis. In addition, the compounds were assessed for cytotoxicity in Ramos cells Inhibition of F1F0-ATPase activity in synthesizing ATP and cytotoxicity in Ramos cells were measured according to the procedures described in K. M. Johnson et al. Chemistry & Biology 2005, 12, 485-496.

[2] = tested on: Ramos cells; test: Cytotoxicity in Ramos cells; assay type: cell-based; conditions: Homo sapiens, read-out: Ramos Cell EC50
Experimental: as §1

pIC50 [1] | Compound | pEC50 [2]
> 5.00 | CC(=O)N(Cc1ccc(F)c(Cl)c1)/C(=N/C(=O)c1ccc(C(F)(F)F)cc1)Nc1cccc(O)n1 [Compound A-65] | > 5.00
< 5.00 | COc1cccc(N/C(=N\C(=O)c2ccc(C(F)(F)F)cc2)NCc2ccc(Cl)c(F)c2)n1 [Compound A-66] | < 5.00
> 5.00 | CC(NC(=NC(=O)c1ccc(C(F)(F)F)cc1)Nc1cccc(O)n1)c1ccccc1Cl (stereo not shown) [Compound A-67] | > 5.00
> 5.00 | CC(NC(=NC(=O)c1ccc(C(F)(F)F)cc1)Nc1cccc(O)n1)c1cccc(Cl)c1 (stereo not shown) [Compound A-68] | > 5.00
> 5.00 | CC(NC(=NC(=O)c1ccc(C(F)(F)F)cc1)Nc1cccc(O)n1)c1ccc(Cl)cc1 (stereo not shown) [Compound A-69] | > 5.00
> 5.00 | O=C(/N=C(/NCc1ccccc1Cl)Nc1cccc(O)n1)c1ccc(F)c(F)c1 [Compound A-71] | > 5.00
> 5.00 | O=C(/N=C(/NCc1cccc(Cl)c1)Nc1cccc(O)n1)c1ccc(F)c(F)c1 [Compound A-72] | > 5.00
> 5.00 | O=C(/N=C(/NCc1ccccc1C(F)(F)F)Nc1cccc(O)n1)c1ccc(F)c(F)c1 [Compound A-73] | > 5.00
> 5.00 | O=C(/N=C(/NCc1cccc(C(F)(F)F)c1)Nc1cccc(O)n1)c1ccc(F)c(F)c1 [Compound A-74] | > 5.00
< 5.00 | O=C(/N=C(/NCc1cc(F)c(F)c(F)c1)Nc1cccc(O)n1)c1ccc(F)c(F)c1 [Compound A-75] | < 5.00
> 5.00 | O=C(/N=C(/NCc1ccc(Cl)cc1)Nc1cccc(O)n1)c1ccc(Cl)cc1 [Compound A-76] | > 5.00
> 5.00 | O=C(/N=C(/NCc1ccccc1C(F)(F)F)Nc1cccc(O)n1)c1ccc(Cl)cc1 [Compound A-77] | > 5.00
> 5.00 | O=C(/N=C(/NCc1ccc(C(F)(F)F)cc1)Nc1cccc(O)n1)c1ccc(Cl)cc1 [Compound A-79] | > 5.00
> 5.00 | O=C(/N=C(/NCc1ccc(F)c(F)c1)Nc1cccc(O)n1)c1ccc(Cl)cc1 [Compound A-80] | > 5.00
> 5.00 | O=C(/N=C(/NCc1ccc(F)cc1Cl)Nc1cccc(O)n1)c1ccc(Cl)cc1 [Compound A-81] | > 5.00
> 5.00 | O=C(/N=C(/NCc1ccc(F)c(Cl)c1)Nc1cccc(O)n1)c1ccc(Cl)cc1 [Compound A-82] | > 5.00
> 5.00 | O=C(/N=C(/NCc1ccc(Cl)c(F)c1)Nc1cccc(O)n1)c1ccc(Cl)cc1 [Compound A-83] | > 5.00
> 5.00 | O=C(/N=C(/NCc1ccc(Cl)cc1F)Nc1cccc(O)n1)c1ccc(Cl)cc1 [Compound A-84] | < 5.00
> 5.00 | O=C(/N=C(/NCc1ccc(F)cc1)Nc1cccc(O)n1)c1ccc(C(F)(F)F)cc1 [Compound A-85] | > 5.00
> 5.00 | O=C(/N=C(/NCc1cccc(F)c1F)Nc1cccc(O)n1)c1ccc(C(F)(F)F)cc1 [Compound A-86] | > 5.00
> 5.00 | O=C(/N=C(/NCc1ccccc1Cl)Nc1cccc(O)n1)c1ccc(Cl)cc1 [Compound A-87] | > 5.00

pIC50 [1] | Compound | pEC50 [2]
> 5.00 | O=C(/N=C(/NCc1cccc(Cl)c1)Nc1cccc(O)n1)c1ccc(Cl)cc1 [Compound A-88] | > 5.00
> 5.00 | O=C(/N=C(\Nc1cccc(O)n1)NC1CCCC1)c1ccc(C(F)(F)F)cc1 [Compound A-89] | > 5.00
> 5.00 | CCC(C)(C)N/C(=N/C(=O)c1ccc(C(F)(F)F)cc1)Nc1cccc(O)n1 [Compound A-90] | > 5.00
> 5.00 | C[C@@H](N/C(=N/C(=O)c1ccc(C(F)(F)F)cc1)Nc1cccc(O)n1)C1CCCCC1 [Compound A-91] | > 5.00
> 5.00 | O=C(/N=C(\Nc1cccc(O)n1)NC1CCOCC1)c1ccc(C(F)(F)F)cc1 [Compound A-92] | > 5.00
> 5.00 | O=C(/N=C(\Nc1cccc(O)n1)NC1CCCOC1)c1ccc(C(F)(F)F)cc1 (stereo not shown) [Compound A-93] | > 5.00
> 5.00 | COCC(C)N/C(=N/C(=O)c1ccc(C(F)(F)F)cc1)Nc1cccc(O)n1 (stereo not shown) [Compound A-94] | < 5.00
> 5.00 | O=C(/N=C(\Nc1cccc(O)n1)NC1CCCC1)c1ccc(F)c(F)c1 [Compound A-95] | > 5.00
> 5.00 | CCC(C)(C)N/C(=N/C(=O)c1ccc(F)c(F)c1)Nc1cccc(O)n1 [Compound A-96] | > 5.00
> 5.00 | C[C@@H](N/C(=N/C(=O)c1ccc(F)c(F)c1)Nc1cccc(O)n1)C1CCCCC1 [Compound A-97] | > 5.00
< 5.00 | O=C(/N=C(\Nc1cccc(O)n1)NC1CCOCC1)c1ccc(F)c(F)c1 [Compound A-98] | < 5.00
< 5.00 | O=C(/N=C(\Nc1cccc(O)n1)NC1CCCOC1)c1ccc(F)c(F)c1 (stereo not shown) [Compound A-99] | < 5.00
< 5.00 | COCC(C)N/C(=N/C(=O)c1ccc(F)c(F)c1)Nc1cccc(O)n1 (stereo not shown) [Compound A-100] | < 5.00
> 5.00 | O=C(/N=C(\Nc1cccc(O)n1)NC1CCCC1)c1ccc(Cl)cc1 [Compound A-101] | < 5.00
> 5.00 | CCC(C)(C)N/C(=N/C(=O)c1ccc(Cl)cc1)Nc1cccc(O)n1 [Compound A-102] | > 5.00
> 5.00 | C[C@@H](N/C(=N/C(=O)c1ccc(Cl)cc1)Nc1cccc(O)n1)C1CCCCC1 [Compound A-103] | > 5.00
< 5.00 | O=C(/N=C(\Nc1cccc(O)n1)NC1CCOCC1)c1ccc(Cl)cc1 [Compound A-104] | < 5.00
< 5.00 | O=C(/N=C(\Nc1cccc(O)n1)NC1CCCOC1)c1ccc(Cl)cc1 (stereo not shown) [Compound A-105] | < 5.00
< 5.00 | COCC(C)N/C(=N/C(=O)c1ccc(Cl)cc1)Nc1cccc(O)n1 (stereo not shown) [Compound A-106] | < 5.00
> 5.00 | CC(C)N/C(=N/C(=O)c1ccc(F)c(F)c1)Nc1cccc(O)n1 [Compound A-107] | < 5.00
> 5.00 | O=C(/N=C(\Nc1cccc(O)n1)NC1CCC1)c1ccc(F)c(F)c1 [Compound A-108] | < 5.00

pIC50 [1] | Compound | pEC50 [2]
> 5.00 | CC(C)N/C(=N/C(=O)c1ccc(Cl)cc1)Nc1cccc(O)n1 [Compound A-109] | < 5.00
> 5.00 | Nc1cccc(N/C(=N\C(=O)c2ccc(F)c(F)c2)Nc2cccc(C(F)(F)F)c2)n1 [Compound A-110] | < 5.00
< 5.00 | CCOC(=O)Nc1cccc(N/C(=N\C(=O)c2ccc(F)c(F)c2)Nc2cccc(C(F)(F)F)c2)n1 [Compound A-111] | < 5.00
> 5.00 | CCOC(=O)Nc1cccc(N/C(=N\C(=O)c2ccc(F)c(F)c2)NCc2ccc(Cl)cc2F)n1 [Compound A-112] | < 5.00
> 5.00 | CS(=O)(=O)Nc1cccc(N/C(=N\C(=O)c2ccc(F)c(F)c2)Nc2cccc(C(F)(F)F)c2)n1 [Compound A-113] | > 5.00
> 5.00 | CS(=O)(=O)Nc1cccc(N/C(=N\C(=O)c2ccc(C(F)(F)F)cc2)NCc2ccccc2C(F)(F)F)n1 [Compound A-114] | > 5.00
> 5.00 | CCS(=O)(=O)Nc1cccc(N/C(=N\C(=O)c2ccc(C(F)(F)F)cc2)NCc2ccccc2C(F)(F)F)n1 [Compound A-115] | > 5.00
> 5.00 | O=C(/N=C(/NCc1ccccc1C(F)(F)F)Nc1cccc(NS(=O)(=O)CC(F)(F)F)n1)c1ccc(C(F)(F)F)cc1 [Compound A-116] | > 5.00
> 5.00 | O=C(/N=C(/NCc1ccccc1C(F)(F)F)Nc1cccc(NS(=O)(=O)C2CC2)n1)c1ccc(C(F)(F)F)cc1 [Compound A-117] | > 5.00
< 5.00 | Nc1cccc(N/C(=N\C(=O)c2cccc(C(F)(F)F)c2)Nc2cccc(C(F)(F)F)c2)n1 [Compound A-118] | < 5.00
< 5.00 | COc1cccc(N/C(=N\C(=O)c2cccc(C(F)(F)F)c2)Nc2cccc(C(F)(F)F)c2)n1 [Compound A-119] | < 5.00
< 5.00 | O=C(/N=C(/Nc1cccc(C(F)(F)F)c1)Nc1cccc(Br)n1)c1cccc(C(F)(F)F)c1 [Compound A-120] | < 5.00
> 5.00 | CS(=O)(=O)Nc1cccc(N/C(=N\C(=O)c2ccc(Cl)c(F)c2)NCc2ccc(F)c(Cl)c2)n1 [Compound A-121] | > 5.00
> 5.00 | CS(=O)(=O)Nc1cccc(N/C(=N\C(=O)c2ccc(C(F)(F)F)cc2)NCC(F)(F)F)n1 [Compound A-122] | < 5.00
> 5.00 | CS(=O)(=O)Nc1cccc(N/C(=N\C(=O)c2ccc(C(F)(F)F)cc2)Nc2cc(F)cc(Cl)c2)n1 [Compound A-123] | > 5.00
> 5.00 | CC(C)(C)N/C(=N/C(=O)c1ccc(Cl)cc1)Nc1cccc(NS(=O)(=O)CC(F)(F)F)n1 [Compound A-124] | > 5.00
> 5.00 | O=C(/N=C(/NCC(F)(F)F)Nc1cccc(NS(=O)(=O)CC(F)(F)F)n1)c1ccc(Cl)cc1 [Compound A-125] | > 5.00
> 5.00 | CC1(N/C(=N/C(=O)c2ccc(Cl)cc2)Nc2cccc(NS(=O)(=O)CC(F)(F)F)n2)CCC1 [Compound A-126] | > 5.00
> 5.00 | O=C(/N=C(\Nc1cccc(NS(=O)(=O)CC(F)(F)F)n1)NC(C1CC1)C1CC1)c1ccc(Cl)cc1 [Compound A-127] | > 5.00
> 5.00 | CC(C)(C)N/C(=N/C(=O)c1ccc(F)c(F)c1)Nc1cccc(NS(=O)(=O)CC(F)(F)F)n1 [Compound A-128] | > 5.00

— patent US9370507B2, “Pyridonyl guanidine F1F0-ATPase inhibitors and therapeutic uses thereof” (Lycera Corporation, priority 2010, dated 2016)
